In the assay the target is PD-1/PD-L1 (Homo sapiens (Human), UniProt Q9NZQ7). Briefly: PD-1/PD-L1 biochemical protein-protein interaction assay (ALPHA). Conditions: 0.3 nM His tagged PD-L1, 2.5 nM biotinylated Fc-PD-1, 60 minutes at 25° C., read-out: IC50 PD-L1-PD1. On the procedure:
Binding of the protein pairs is measured using a bead based Amplified Luminescent Proximity Homogeneous Assay (ALPHA) platform. Binding of each protein pair results in proximity of the donor and acceptor beads which leads to an increase in ALPHA signal. […] Assays are performed in 25 mM Hepes (pH 7.4), 150 mM NaCl, 3.4 mM EDTA, 0.005% Tween 20, and 0.01% BSA. […] After an assay reaction time of 60 minutes at 25° C., binding was measured with addition of 20 μg/mL ALPHA assay acceptor beads (anti-His coated) and 20 µg/mL ALPHA assay donor beads (streptavidin coated). IC50 values were calculated from the fit of the dose-response curves to a four-parameter equation.
Chain of PD-1/PD-L1 (Q9NZQ7 19-238): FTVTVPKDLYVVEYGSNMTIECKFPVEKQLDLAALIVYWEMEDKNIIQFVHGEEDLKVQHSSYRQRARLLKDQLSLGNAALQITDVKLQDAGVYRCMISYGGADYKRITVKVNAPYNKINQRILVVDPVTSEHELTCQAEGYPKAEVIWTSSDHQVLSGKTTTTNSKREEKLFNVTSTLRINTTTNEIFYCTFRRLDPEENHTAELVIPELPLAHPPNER
Consider `COc1nc(-c2cccc(-c3cccc(-c4cnc(CN[C@H]5C[C@](C)(O)C5)c(OC)n4)c3Cl)c2Cl)cnc1CNC[C@@H]1CCC(=O)N1` [compound 564], for which the 50% inhibitory concentration (IC50) amounted to 200 pM. With `COc1nc(-c2cccc(-c3cccc(-c4cnc(CN5CC6(CCC(=O)N6)C5)c(OC)n4)c3Cl)c2Cl)cnc1CN1CC2(CCC(=O)N2)C1` [compound 136], the half-maximal inhibitory concentration (IC50) turned out to be 147 pM. The result for `COc1nc(-c2cccc(-c3cccc(-c4cnc(CN5CCC(N6CCNC6=O)C5)c(OC)n4)c3Cl)c2Cl)cnc1CN1CCC(N2CCNC2=O)C1` (stereo not shown) [compound 525] reads 105 pM.

On to `CCNc1nc(-c2cccc(-c3cccc(-c4cnc(CN5CC6(CCC(=O)N6)C5)c(NCC)n4)c3Cl)c2Cl)cnc1CN1CC2(CCC(=O)N2)C1` [compound 68], for which the IC50 was 403 pM. The figure for `COc1nc(-c2cccc(-c3cccc(-c4cnc(CNC5CCC([S+](C)[O-])C5)c(OC)n4)c3Cl)c2Cl)cnc1CNC[C@@H]1CCC(=O)N1` (stereo partly shown) [compound 222] is 291 pM; for `COc1nc(-c2cccc(-c3cccc(-c4cnc(CNC[C@@H]5CCC(=O)N5)c(OC)n4)c3Cl)c2Cl)ccc1CN1CC2(CNC(=O)N2)C1` [compound 168] it is 196 pM; for `COc1nc(-c2cccc(-c3cccc(-c4cnc(CN[C@H]5CCOC5)c(OC)n4)c3Cl)c2Cl)cnc1CN[C@H]1CCOC1` [compound 144] it is 240 pM. The result for `COc1nc(-c2cccc(-c3cccc(-c4cnc(CNC[C@@H]5CC(C)(C)C(=O)N5)c(OC)n4)c3Cl)c2Cl)cnc1CNC[C@@H]1CC(C)(C)C(=O)N1` [compound 244] reads 80 pM; that for `COc1nc(-c2cccc(-c3cccc(-c4cnc(CNC[C@@H]5CCC(=O)N5)c(OC)n4)c3Cl)c2Cl)cnc1CNCCCc1nc2ccccc2[nH]1` [compound 419], 542 pM. The result for `COc1nc(-c2cccc(-c3cccc(-c4cnc(CNCCc5cnccn5)c(OC)n4)c3Cl)c2Cl)cnc1CNCCc1cnccn1` [compound 518] reads 144 pM; that for `COc1nc(-c2cccc(-c3cccc(-c4cnc(CN[C@H]5CCC[C@H]5O)c(OC)n4)c3Cl)c2Cl)ccc1CNC[C@@H]1CNC(=O)C1` [compound 640], 167 pM; that for `COc1nc(-c2cccc(-c3cccc(-c4cnc(CNCC[C@@H]5CCC(=O)N5)c(OC)n4)c3Cl)c2Cl)cnc1CNCC[C@@H]1CCC(=O)N1` [compound 434], 64 pM. In the case of `COc1nc(-c2cccc(-c3cccc(-c4cnc(CN5CC6(C5)CN(C(C)=O)C6)c(OC)n4)c3Cl)c2Cl)ccc1CNC[C@@H]1CCC(=O)N1` [compound 632], the IC50 stood at 172 pM.

With `COc1nc(-c2cccc(-c3cccc(-c4cnc(CN5CC6(C5)CN(C(C)=O)C6)c(OC)n4)c3Cl)c2F)cnc1CN1CC2(C1)CN(C(C)=O)C2` [compound 4], the IC50 stood at 86 pM.

Consider `COc1nc(-c2cccc(-c3cccc(-c4cnc(C5=NC[C@@H](C)N5)c(OC)n4)c3Cl)c2Cl)cnc1CNC[C@@H]1CCC(=O)N1` [compound 647], for which the IC50 came to 64 pM. `COc1nc(-c2cccc(-c3cccc(-c4cnc(CN[C@H](C)[C@@H]5CCC(=O)N5)c(OC)n4)c3Cl)c2Cl)cnc1CNC[C@@H]1CCC(=O)N1` [compound 599]: the IC50 is 174 pM. On to `COc1nc(-c2cccc(-c3cccc(-c4cnc(CNC[C@@H]5CCC(=O)N5)c(OC)n4)c3Cl)c2Cl)ccc1CN[C@H]1CNC(=O)C1` [compound 166], for which the IC50 was determined as 233 pM.

In the case of `COc1nc(-c2cccc(-c3cccc(-c4cnc(C5=NC[C@@H](CO)N5)c(OC)n4)c3Cl)c2Cl)cnc1C1=NC[C@@H](CO)N1` [compound 134], the IC50 came to 64 pM. As for `COc1nc(-c2cccc(-c3cccc(-c4cnc(CN5CC[C@@H](C(C)(C)O)C5)c(OC)n4)c3Cl)c2Cl)cnc1CNC[C@@H]1CCC(=O)N1` [compound 501], the half-maximal inhibitory concentration (IC50) was 87 pM. The figure for `COc1nc(-c2cccc(-c3cccc(-c4cnc(CNC(C)(C)CO)c(OC)n4)c3Cl)c2Cl)cnc1CNC(C)(C)CO` [compound 384] is 154 pM.

Regarding `COc1nc(-c2cccc(-c3cccc(-c4cnc(CN[C@@H]5CCOC[C@H]5O)c(OC)n4)c3Cl)c2Cl)cnc1CNC[C@@H]1CCC(=O)N1` [compound 334], the IC50 amounted to 246 pM. On to `COc1nc(-c2cccc(-c3cccc(-c4cnc(CNC[C@@H]5CCC(=O)N5)c(OC)n4)c3Cl)c2Cl)cnc1CNCc1ccccn1` [compound 418], for which the IC50 worked out at 219 pM.

Consider `COc1nc(-c2cccc(-c3cccc(-c4cnc(CN(CC5CC5)C[C@@H]5CCC(=O)N5)c(OC)n4)c3Cl)c2Cl)cnc1CN(CC1CC1)C[C@@H]1CCC(=O)N1` [compound 328], for which the half-inhibitory concentration (IC50) was found to be 4040 pM.

For the compound `COc1nc(-c2cccc(-c3cccc(-c4cnc(CN5CCN(C=O)CC5)c(OC)n4)c3Cl)c2Cl)cnc1CNC[C@@H]1CCC(=O)N1` [compound 256], the IC50 came to 160 pM.

Take `COc1nc(-c2cccc(-c3cccc(-c4cnc(CN5C[C@H](O)[C@@H](O)C5)c(OC)n4)c3Cl)c2Cl)cnc1CNC[C@@H]1CCC(=O)N1` [compound 529]: the IC50 is 91 pM. `COc1nc(-c2cccc(-c3cccc(-c4cnc5c(CN6CC7(CCC(=O)N7)C6)cn(C)c5c4)c3Cl)c2Cl)cnc1CN1CC2(CCC(=O)N2)C1` [compound 450]: the IC50 was found to be 64 pM. For `COc1nc(-c2cccc(-c3cccc(-c4cnc(CN5CC[C@@H](O)C5)c(OC)n4)c3Cl)c2Cl)cnc1CNC[C@@H]1CCC(=O)N1` [compound 380], the IC50 worked out at 203 pM.

With `COc1nc(-c2cccc(-c3cccc(-c4cnc(CNC[C@@H]5CCC(=O)N5)c(OC)n4)c3Cl)c2Cl)cnc1CNCCOC(N)=O` [compound 25], the IC50 is 80 pM. Take `COc1nc(-c2cccc(-c3cccc(-c4cnc(CNCCO)c(OC)n4)c3Cl)c2F)cnc1CNCCO` [compound 5]: the IC50 worked out at 213 pM. Consider `CNC(=O)C1CN(Cc2ncc(-c3cccc(-c4cccc(-c5cnc(CNC[C@@H]6CCC(=O)N6)c(OC)n5)c4Cl)c3Cl)nc2OC)C1` [compound 558], for which the half-inhibitory concentration (IC50) amounted to 64 pM. The result for `CN(C)c1nc(-c2cccc(-c3cccc(-c4cnc(CN5CC(O)C5)c(N(C)C)n4)c3Cl)c2Cl)cnc1CN1CC(O)C1` [compound 99] reads 407 pM; that for `COCCC1CN(Cc2ncc(-c3cccc(-c4cccc(-c5cnc(CNC[C@@H]6CCC(=O)N6)c(OC)n5)c4Cl)c3Cl)nc2OC)C1` [compound 225], 288 pM.

For `CN(C)c1nc(-c2cccc(-c3cccc(-c4cnc(CN5CC6(CCC(=O)N6)C5)c(N(C)C)n4)c3Cl)c2Cl)cnc1CN1CC2(CCC(=O)N2)C1` [compound 103], the IC50 amounted to 71 pM. For the compound `CSc1nc(-c2cccc(-c3cccc(-c4cnc(CNC[C@@H]5CCC(=O)N5)c(SC)n4)c3Cl)c2Cl)cnc1CNC[C@@H]1CCC(=O)N1` [compound 91], the IC50 was 978 pM. For the compound `CCn1cc(CN2CC3(CCC(=O)N3)C2)c2ncc(-c3cccc(-c4cccc(-c5cnc(CN6CC7(CCC(=O)N7)C6)c(OC)n5)c4Cl)c3Cl)nc21` [compound 610], the IC50 amounted to 313 pM. The figure for `COc1nc(-c2cccc(-c3cccc(-c4cnc(CNC[C@@H]5CCC(=O)N5)c(OC)n4)c3Cl)c2Cl)ccc1CN[C@H]1CCNC1=O` [compound 169] is 344 pM; for `COc1nc(-c2cccc(-c3cccc(-c4cnc(CN[C@@H]5CC[C@@H](O)C5)c(OC)n4)c3Cl)c2Cl)cnc1CNC[C@@H]1CCC(=O)N1` [compound 354] it is 133 pM.

Take `COc1nc(-c2cccc(-c3cccc(-c4cnc(CNC[C@H]5CCC[C@@H]5O)c(OC)n4)c3Cl)c2Cl)cnc1CNC[C@H]1CCC[C@@H]1O` [compound 476]: the IC50 came out at 622 pM. Consider `COc1nc(-c2cccc(-c3cccc(-c4cnc(CN5CC[C@@H](CO)C5)c(OC)n4)c3Cl)c2Cl)cnc1CNC[C@@H]1CCC(=O)N1` [compound 627], for which the IC50 turned out to be 81 pM. As for `COc1nc(-c2cccc(-c3cccc(-c4cnc(CNC[C@@H]5CCC(=O)N5)c(OC)n4)c3Cl)c2Cl)ccc1CN[C@H]1CCOC1` [compound 171], the IC50 was 208 pM.

`COc1nc(-c2cccc(-c3cccc(-c4cnc(CN5CC[C@H](C(=O)O)C5)c(OC)n4)c3Cl)c2Cl)ccc1CNC[C@@H]1CCC(=O)N1` [compound 513]: the IC50 was 64 pM. The figure for `COCC1(NCc2ncc(-c3cccc(-c4cccc(-c5cnc(CNC[C@@H]6CCC(=O)N6)c(OC)n5)c4Cl)c3Cl)nc2OC)CCC1` [compound 185] is 480 pM; for `COc1nc(-c2cccc(-c3cccc(-c4cnc(CN5C[C@@H](CO)[C@H](C)C5)c(OC)n4)c3Cl)c2Cl)cnc1CN1C[C@@H](CO)[C@H](C)C1` [compound 533] it is 96 pM; for `CCc1nc(-c2cccc(-c3cccc(-c4cnc(CN5CC6(CNC(=O)C6)C5)c(CC)n4)c3Cl)c2Cl)cnc1CN1CC2(CNC(=O)C2)C1` [compound 83] it is 560 pM. For `COc1nc(-c2cccc(-c3cccc(-c4cnc(CNC[C@@H]5CCC(=O)N5)c(OC)n4)c3Cl)c2Cl)cnc1CNCCC(N)=O` [compound 45], the IC50 came to 64 pM.

Consider `COc1nc(-c2cccc(-c3cccc(-c4cnc(CN[C@H]5C[C@H](C(C)(C)O)C5)c(OC)n4)c3Cl)c2Cl)cnc1CNC[C@@H]1CCC(=O)N1` [compound 366], for which the IC50 came out at 115 pM. `COc1nc(-c2cccc(-c3cccc(-c4cnc(CNC[C@@H]5CCC(=O)N5)c(OC)n4)c3Cl)c2Cl)cnc1CNCCNC(N)=O` [compound 44]: the IC50 is 113 pM. The figure for `COc1nc(-c2cccc(-c3cccc(-c4cnc(CN5CC(NS(N)(=O)=O)C5)c(OC)n4)c3Cl)c2Cl)cnc1CN1CC(NS(N)(=O)=O)C1` [compound 571] is 64 pM; for `COCC1(CO)CCN(Cc2ncc(-c3cccc(-c4cccc(-c5cnc(CN6CCC(CO)(COC)C6)c(OC)n5)c4Cl)c3Cl)nc2OC)C1` (stereo not shown) [compound 460] it is 157 pM.

Broadly, the IC50 is the concentration that inhibits the measured activity by half.

The values are drawn from patent publication US10710986B2, “PD-1/PD-L1 inhibitors” (Gilead Sciences, Inc., priority 2018, dated 2020).
